Assay results reported in ChEMBL document CHEMBL3826953, “Development of Autotaxin Inhibitors: An Overview of the Patent and Primary Literature” (J Med Chem, 2016).
One block for each molecule: values may come before it.

Experiments:
Autotaxin [1] = biological target: T1, Autotaxin (Mus musculus, UniProt Q9R1E6); assay: Inhibition of ATX in mouse plasma assessed as inhibition of LPA production after 2 hrs by LC-MS/MS analysis; type: cell-free
Autotaxin [2] = biological target: T1, Autotaxin; assay: Inhibition of recombinant mouse ATX using lysophosphatidylcholine as substrate by choline release assay
[3] = Half life in human; type: ADME, organism-based; details: in vivo
Autotaxin [4] = biological target: Autotaxin (Rattus norvegicus, UniProt Q64610); assay: Inhibition of ATX in rat plasma assessed as inhibition of LPA production after 2 hrs by LC-MS/MS analysis; type: cell-free
Autotaxin [5] = biological target: T2, Autotaxin (Homo sapiens, UniProt Q13822); assay: Inhibition of recombinant human C-terminal V5/His6-tagged ATX expressed in HEK293 cells assessed as choline release at 0.5 uM using oleoyl-lysophosphatidylcholine as substrate incubated for 18 hrs by non-linear regression analysis
Autotaxin [6] = biological target: T2, Autotaxin; assay: Inhibition of recombinant human C-terminal V5/His6-tagged ATX expressed in HEK293 cells assessed as residual activity at 100 uM using oleoyl-lysophosphatidylcholine as substrate incubated for 16 hrs by choline release assay relative to control
Autotaxin [7] = biological target: T2, Autotaxin; assay: Inhibition of recombinant human C-terminal V5/His6-tagged ATX expressed in HEK293 cells assessed as residual activity at 1 uM using oleoyl-lysophosphatidylcholine as substrate incubated for 16 hrs by choline release assay relative to control
Autotaxin [8] = biological target: T2, Autotaxin; assay: Inhibition of recombinant human C-terminal V5/His6-tagged ATX expressed in HEK293 cells assessed as residual activity at 10 uM using oleoyl-lysophosphatidylcholine as substrate incubated for 16 hrs by choline release assay relative to control
Autotaxin [9] = biological target: T2, Autotaxin; assay: Inhibition of recombinant human C-terminal V5/His6-tagged ATX expressed in HEK293 cells assessed as choline release at 0.5 uM using oleoyl-lysophosphatidylcholine as substrate incubated for 18 hrs by linear regression analysis
[10] = Clearance in Lewis rat at 1 mg/kg, iv measured up to 24 hrs by LC-MS/MS analysis; type: ADME, organism-based; details: in vivo
[11] = Plasma concentration in Lewis rat air pouch model of inflammation at 3 mg/kg, po administered through gavage 1 hr before carrageenan injection measured after 3 hrs by LC-MS/MS analysis relative to control; type: ADME, organism-based
Rattus norvegicus [12] = assay: In vivo inhibition of ATX in Lewis rat air pouch model of inflammation assessed as inhibition of carrageenan-induced LPA production in plasma at 100 mg/kg, po administered through gavage 1 hr before carrageenan injection measured after 3 hrs by LC-MS/MS analysis relative to control; type: functional
[13] = Oral bioavailability in Lewis rat at 1 to 100 mg/kg administered through gavage measured up to 24 hrs by LC-MS/MS analysis; type: ADME, organism-based; details: in vivo
Rattus norvegicus [14] = assay: In vivo inhibition of ATX in Lewis rat air pouch model of inflammation assessed as inhibition of carrageenan-induced LPA production in pouch fluid at 100 mg/kg, po administered through gavage 1 hr before carrageenan injection measured after 3 hrs by LC-MS/MS analysis relative to control; type: functional
[15] = Plasma concentration in Lewis rat air pouch model of inflammation at 100 mg/kg, po administered through gavage 1 hr before carrageenan injection measured after 3 hrs by LC-MS/MS analysis relative to control; type: ADME, organism-based
[16] = Effective half life in Lewis rat at 1 mg/kg, iv measured up to 24 hrs by LC-MS/MS analysis; type: ADME, organism-based; details: in vivo, read-out: t1/2eff (converted)
Autotaxin [17] = biological target: T2, Autotaxin; assay: Inhibition of recombinant ATX in human Hep3B cells using lysophosphatidylcholine as substrate preincubated for 15 mins followed by substrate addition measured after 1.5 to 3 hrs by choline release assay; type: cell-based, Hep 3B2
Autotaxin [18] = biological target: T2, Autotaxin; assay: Mixed-type inhibition of human recombinant ATX using FS3 as substrate assessed as enzyme-inhibitor complex incubated for 2 hrs by Michaelis-Menten equation analysis
Autotaxin [19] = biological target: T2, Autotaxin; assay: Mixed-type inhibition of human recombinant ATX using FS3 as substrate assessed as enzyme-substrate-inhibitor complex incubated for 2 hrs by Michaelis-Menten equation analysis
Autotaxin [20] = biological target: T2, Autotaxin; assay: Inhibition of human recombinant ATX using FS3 as substrate incubated for 2 hrs by fluorescence assay
Autotaxin [21] = biological target: T2, Autotaxin; assay: Inhibition of recombinant human C-terminal His-tagged ATX expressed in HEK293E cells using lysophosphatidylcholine as substrate preincubated with enzyme followed by substrate addition measured after 1 hr by AmplexRed dye based fluorescence assay
Autotaxin [22] = biological target: T2, Autotaxin; assay: Inhibition of recombinant ATX in human […] cells using lysophosphatidylcholine as substrate preincubated for 15 mins followed by substrate addition measured after 90 mins by choline release assay; type: cell-based
Autotaxin [23] = biological target: T2, Autotaxin; assay: Inhibition of recombinant ATX in human MDA-MB-435 cells at 10 uM using FS3 as substrate fluorescence assay relative to control; type: cell-based
Autotaxin [24] = biological target: T2, Autotaxin; assay: Inhibition of recombinant human ATX using CPF4 as substrate measured after 3 hrs by fluorescence assay
Autotaxin [25] = biological target: T2, Autotaxin; details: 10 uM
Description: Inhibition of recombinant human ATX at 10 uM using lysophosphatidylcholine (14:0) as substrate measured after 2 hrs by AmplexRed dye based fluorescence assay relative to control

Autotaxin [26] = biological target: T2, Autotaxin; assay: Inhibition of recombinant ATX (unknown origin) expressed in baculovirus infected Hi5 cells using L-alpha-lysophosphatidylcholine as substrate preincubated for 30 mins followed by substrate addition measured after 90 mins by AmplexRed dye based fluorescence plate reader analysis; details: BTI-TN-5B1-4
Autotaxin [27] = biological target: T2, Autotaxin; assay: Inhibition of human recombinant ATX using FS3 as substrate incubated for 30 mins by fluorescence assay

IC50 (Autotaxin [1]): ≥ 500 nM
IC50 (Autotaxin [2]): 224 nM
half-life [3]: 5 h
IC50 (Autotaxin [4]): ≥ 500 nM
SMILES: CCc1nc2c(C)cc(N3CCN(CC(=O)N4CC(O)C4)CC3)cn2c1N(C)c1nc(-c2ccc(F)cc2)c(C#N)s1 [ZIRITAXESTAT]

clearance [10]: 31 mL/min/kg
concentration at 3 h [11]: 79 nM
bioavailability [13]: 43%
concentration at 3 h [15]: 2680 nM
half-life [16]: 1.2 h
SMILES: O=C(CCN1CCN(C(=O)OCc2cc(Cl)cc(Cl)c2)CC1)c1ccc2[nH]c(=O)oc2c1
inhibition in vivo at 100 mg/kg (Rattus norvegicus [12]): ≤ 95%
inhibition in vivo at 100 mg/kg (Rattus norvegicus [14]): ≤ 95%

Ki (Autotaxin [18]): 270 nM
Ki (Autotaxin [19]): 280 nM
IC50 (Autotaxin [20]): 170 nM
SMILES: CCCCCCCCCCCCCCc1ccc(CP(=O)(O)O)cc1

More lines, now with the values behind:

SMILES: CCCCCCCCCCCCCCCC(=O)N[C@@H](Cc1ccc(OCc2ncc(C)c(OC)c2C)cc1)[C@@H](O)CP(=O)(O)O
Ki (Autotaxin [5]): 1300 nM
Activity (Autotaxin [6]): 6%
Activity (Autotaxin [7]): 27%
Activity (Autotaxin [8]): 13%
Ki (Autotaxin [9]): 390 nM

SMILES: N#C/C(=C\c1nn(Cc2ccc(F)cc2)c2cc(Cl)ccc12)c1ccc(C(=O)O)cc1
IC50 (Autotaxin [17]): < 500 nM

SMILES: O=C(c1cc(-c2cnn[nH]2)ccn1)N1CCc2nc(NC3Cc4ccccc4C3)ncc2C1
IC50 (Autotaxin [21]): < 1.7 nM

SMILES: Cc1c(Sc2cccc(C(=O)O)n2)c2ccc(Cl)cc2n1-c1cnn(C)c1
IC50 (Autotaxin [22]): < 300 nM

SMILES: CCn1cc(C(=O)O)c(=O)c2cnc(N3CCN(C(=S)NCc4cc(Cl)cc(Cl)c4)CC3)nc21
inhibition (Autotaxin [23]): 0%

SMILES: O=C(Nc1cccc(F)c1)c1cc(S(=O)(=O)N2CCOCC2)c(Cl)cc1Cl
IC50 (Autotaxin [24]): 31.4 nM
inhibition (Autotaxin [25]): 41%

SMILES: O=C(OCc1cc(Cl)cc(Cl)c1)N1CCC(N2CCN(C(=O)c3ccc4[nH]c(=O)oc4c3)CC2)CC1
INH (Autotaxin [26]): < 1 µM

SMILES: O=C(CCc1nc2ccccc2s1)N1CCc2ncnc(Cc3ccc(F)cc3)c2C1
IC50 (Autotaxin [27]): 2.59 nM
